The Ki is a measure of affinity in units of concentration, obtained from inhibition or displacement.

This experiment has as its target T1, human FAAH (Homo sapiens, UniProt O00519).
T1 construct: host or cells: COS-7 cells, transient transfection; 13,000 g membrane fraction solubilised in 1% Triton X-100
T1 sequence (O00519 1-579): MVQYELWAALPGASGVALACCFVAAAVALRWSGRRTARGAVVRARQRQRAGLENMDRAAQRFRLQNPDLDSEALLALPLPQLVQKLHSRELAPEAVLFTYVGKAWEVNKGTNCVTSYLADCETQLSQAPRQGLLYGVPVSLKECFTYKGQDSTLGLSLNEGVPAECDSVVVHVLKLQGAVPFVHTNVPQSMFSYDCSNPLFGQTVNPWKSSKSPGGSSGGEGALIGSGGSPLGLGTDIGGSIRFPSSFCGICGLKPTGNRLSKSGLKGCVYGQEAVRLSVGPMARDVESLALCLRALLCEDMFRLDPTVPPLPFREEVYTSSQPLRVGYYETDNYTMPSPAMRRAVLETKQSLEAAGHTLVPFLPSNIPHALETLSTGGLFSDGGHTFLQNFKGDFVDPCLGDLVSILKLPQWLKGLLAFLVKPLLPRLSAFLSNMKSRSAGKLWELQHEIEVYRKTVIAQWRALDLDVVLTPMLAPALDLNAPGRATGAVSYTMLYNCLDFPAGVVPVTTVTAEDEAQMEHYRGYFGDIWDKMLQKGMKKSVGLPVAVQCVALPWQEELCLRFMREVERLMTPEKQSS
Nature of the experiment: Inhibition of human FAAH (AMC arachidonoyl amide fluorescence assay). The conditions noted are these: inhibitor preincubated 30 minutes at room temperature; 20 μM AMC arachidonoyl amide; 4 hours; read-out: Activity (Ki, inhibitors of human FAAH). The format is biochemical. On the procedure:
Human FAAH Preparation: COS-7 cells were split the day before, 1:5 into 150 mm x […] cell culture dishes (Corning Inc., Cat. No. 430599). Transient transfection took place at 30-40% confluency according to FuGENE 6 Transfection Reagent (Roche, Cat. No. 11814 443 001).
Transfection Procedure: The FuGENE transfection 6 reagent (45 uL) was added to 1410 μL of media (DMEM, serum free without pen/strep) in a 15 mL conical tube and incubated at room temp for 5 minutes, followed by the addition of FAAH plasmid DNA (15 μg) (OriGene Cat. No. TC119221, Genbank Accession No. NM_001441.1, 0.67 ug/uL) and a further incubation of 15 minutes at room temperature. The resulting solution was added into one dish of 30-40% confluent COS-7 cells in a drop-wise manner. The COS-7 cell dish was subsequently incubated for 48 hours. The cells are then harvested.
Harvest procedure: Media was aspirated from the dishes and the cells rinsed with 10 mL PBS. The PBS was removed and 3 mL of PBS added to the dish. The dish was scraped to resuspend the cells, and the subsequent cell suspension collected into a 15 mL conical tube. The cells were pelleted by centrifugation at 1200 rpm for 5 minutes in a bench top centrifuge. PBS was removed and the cell pellet snap frozen in liquid nitrogen and stored at −80° C.
COS-7 cells —FAAH purification: • (1) Fractionation: Frozen cell pellets from transient transfections were thawed on ice and resuspended in 12.5 mM Hepes pH 8.0, 100 mM NaCl, 1 mM EDTA (10 mL/0.2 g cell pellet). The pellets were dounce homogenized and then sonicated to produce cell extract. The cell extract was subsequently centrifuged at 1000 g to remove cellular debris. The pellet was discarded and the supernatant centrifuged at 13,000 g for 20 minutes. The pellet contained membrane bound FAAH. The supernatant was discarded and the pellet resolubilized. • (2) Re-solubilization: The fraction of interest, (13,000 g, membrane fraction) was re-suspended in 2.3 mL re-suspension buffer (20 mM Hepes pH 7.8, 10% v/v Glycerol, 1 mM EDTA, 1% Triton X-100) and the sample incubated on ice for 1 hour and then centrifuged to remove any particulate matter. The supernatant containing solubilized human FAAH was aliquoted and snap frozen in liquid nitrogen and stored at −80° C. until use. • (3) Characterization: Protein Concentration determined by Bradford assay. • SDS gel and Western blot to confirm presence of FAAH • FAAH activity assay • Km determination-96-well assay • Linear dependence—96-well assay • Standard compound Ki determination—384-well assay
Human FAAH assay; Experimental Protocol: A 0.1 mg/mL Human FAAH solution was made up in FAAH reaction buffer, and 24 ul pipeted into a 384 well plate. To this was added 1 μL of a 3 fold serially diluted inhibitor from a DMSO stock solution. The FAAH solution and inhibitor were incubated for 30 minutes at room temperature. The FAAH reaction was initiated by the addition of 25 μL of 40 μM AMC Arachidonoyl Amide in FAAH reaction buffer, yielding a final reaction human FAAH preparation concentration of 0.05 mg/ml and AMC-Arachidonoyl substrate concentration of 20 μM, reaction volume 50 μL. The reaction was allowed to proceed for 4 hours at room temperature. The reaction was stopped by the addition of 25 μL 12 μM a-ketoheterocycle (Cayman Chemicals, catalogue #10435). The microtiter plate was read in the envision plate reader.
The raw fluorescence was plotted on the y axis and the inhibitor concentration on the x axis to give a dose response inhibition curve. The data was fitted to a single site competitive inhibition equation, fixing the Km for the human enzyme to 12 μM and 9 μM respectively.
For `COC(=O)c1cccc(-c2ccc(OC3=NOC(c4ccc(OC(F)(F)F)cc4)C3)cn2)c1` (racemic) [I-83], the Ki fell in the range of 100 to 1000 nM.
For `Cn1cc(-c2ccc(OC3=NOC(c4ccc(C(F)(F)F)cc4)C3)cn2)cn1` (racemic) [I-219], the Ki was at most 100 nM.
Regarding `CC(C)CS(=O)(=O)c1ccc(OC2=NOC(c3ccc(OC(F)(F)F)cc3)C2)cn1` (racemic) [I-184], the Ki lay in the range of 100 to 1000 nM.
Next, `O=C(O)c1ccc(OC2=NOC(c3ccc(Oc4ccccc4)cc3)C2)cc1` (racemic) [I-147]: at most 100 nM; `CCCCOc1ccc([C@H]2CC(Oc3ccc(C(=O)O)nc3)=NO2)cc1` (racemic) [I-138]: at most 100 nM.
Turning to `C#CCOc1ccc([C@H]2CC(Br)=NO2)cc1` (racemic) [I-142], the Ki is at most 100 nM.
In the case of `FC(F)(F)Oc1ccc(C2CC(Oc3cccnc3)=NO2)cc1` (racemic) [I-70], the Ki was at most 100 nM.
The value for `Cn1ccc2cc(OC3=NOC(c4ccc(Oc5ccccc5)cc4)C3)cnc21` (single isomer, unassigned) [I-44] was 100 to 1000 nM.
For the molecule `NS(=O)(=O)c1ccc(OC2=NOC(c3ccc(Oc4ccccc4)cc3)C2)cc1` (racemic) [I-90], the Ki is at most 100 nM.
The value for `CN(C)C(=O)c1ccc([C@H]2CC(Br)=NO2)cc1` (racemic) [I-203] was at most 100 nM; that for `CN(CC(=O)O)C1=NOC(c2ccc(Oc3ccccc3)cc2)C1` (racemic) [I-244] was 100 to 1000 nM; that for `Fc1cccc(-c2ccc(C3CC(Oc4cncnc4)=NO3)c(F)c2)c1` (racemic) [I-119] was at most 100 nM.
The value for `CCS(=O)(=O)c1ccc(OC2=NOC(C)(c3ccc(OC(F)(F)F)cc3)C2)cn1` (racemic) [I-196] was at most 100 nM.
Turning to `c1ccc(Oc2ccc(C3CC(Oc4cncnc4)=NO3)cc2)cc1` (single isomer, unassigned) [I-41], the Ki is at most 100 nM.
Next, `Cc1ccc(-c2ccc(OC3=NOC(c4ccc(OC(F)(F)F)cc4)C3)cn2)o1` (racemic) [I-187]: at most 100 nM; `Fc1cccc(OC2=NOC(c3ccc(Oc4ccccc4)cc3)C2)c1` (single isomer, unassigned) [I-25]: 100 to 1000 nM; `CN(C)C(=O)c1ccc(OC2=NOC(c3ccc(OC(F)(F)F)cc3)C2)cn1` (racemic) [I-108]: 100 to 1000 nM.
For `FC(F)(F)Oc1ccc(C2CC(Oc3cccc(-c4nnco4)c3)=NO2)cc1` (racemic) [I-258], the Ki was at most 100 nM.
For `FC(F)(F)Oc1ccc(C2CC(Oc3ccc(-c4nnn[nH]4)cc3)=NO2)cc1` (racemic) [I-175], the Ki lay in the range of 100 to 1000 nM.
Next, `c1ccc(OC2=NOC(c3ccc(Oc4ccccc4)cc3)C2)cc1` (single isomer, unassigned) [I-23]: at least 1000 nM; `FC(F)(F)Oc1ccc(C2CC(Oc3cncnc3)=NO2)cc1Cl` (racemic) [I-125]: at most 100 nM; `C[C@@H]1C(Oc2cccnc2)=NO[C@H]1c1ccc(Oc2ccccc2)cc1` (racemic) [I-91]: at least 1000 nM.
The value for `C[C@]1(c2ccc(-c3ccccc3)cc2)CC(Br)=NO1` (racemic) [I-102] was at most 100 nM; that for `COC(=O)c1ccc(OC2=NO[C@@H](c3ccc(OC(F)(F)F)c(F)c3)C2)cn1` (racemic) [I-122] was at most 100 nM.
The value for `CCCCOc1ccc([C@H]2CC(Oc3ccc(C(=O)OC)nc3)=NO2)cc1` (racemic) [I-137] was at most 100 nM; that for `CC1(c2ccc(OC(F)(F)F)cc2)CC(Oc2ccc(-c3ncco3)nc2)=NO1` (racemic) [I-185] was at most 100 nM; that for `Cc1nnc(-c2cccc(OC3=NOC(c4ccc(Oc5ccccc5)cc4)C3)c2)o1` (racemic) [I-160] was at most 100 nM.
For `c1ccc(Oc2ccc(C3CC(Oc4cccnc4)=NO3)cc2)cc1` (single isomer, unassigned) [I-37], the Ki was at most 100 nM.
For the molecule `O=C(O)c1cncc(OC2=NOC(c3ccc(OC(F)(F)F)cc3)C2)c1` (racemic) [I-55], the Ki is at least 1000 nM.
Next, `O=C(c1ccc([C@H]2CC(Br)=NO2)cc1)N1CCCCC1` (racemic) [I-208]: at most 100 nM; `O=C(c1ccc([C@H]2CC(Br)=NO2)cc1)N1CCCC1` (racemic) [I-209]: at most 100 nM; `Cc1nnc(-c2ccc(OC3=NOC(C)(c4ccc(OC(F)(F)F)cc4)C3)cn2)o1` (racemic) [I-156]: at most 100 nM.
The value for `O=S(=O)(C1=NOC(c2ccc(OC(F)(F)F)cc2)C1)c1ccccc1` (racemic) [I-250] was at least 1000 nM; that for `CN(C)C(=O)c1ccc(OC2=NOC(c3ccc(Oc4ccccc4)cc3)C2)cn1` (racemic) [I-111] was at most 100 nM.
Next, `CCC1(c2ccc(Oc3ccccc3)cc2)CC(Br)=NO1` (racemic) [I-95]: at most 100 nM; `FC(F)(F)Oc1ccc(C2CC(Oc3ccc(-c4cn[nH]c4)nc3)=NO2)cc1` (racemic) [I-165]: at least 1000 nM.
On to `O=C(c1ccc([C@H]2CC(Br)=NO2)cc1)N1CCOCC1` (racemic) [I-202], for which the inhibitory constant (Ki) was in the range of 100 to 1000 nM.
Next, `CN(C)C(=O)c1ccc(C2CC(Oc3ccc(S(C)(=O)=O)nc3)=NO2)cc1` (racemic) [I-212]: 100 to 1000 nM; `Clc1ccc([C@H]2CC(Oc3cncnc3)=NO2)cc1` (racemic) [I-153]: 100 to 1000 nM; `Clc1cccc(C2CC(Br)=NO2)c1` (single isomer, unassigned) [I-4]: 100 to 1000 nM.
Next, `O=S(=O)(c1ccc([C@H]2CC(Br)=NO2)cc1)N1CCCCC1` (racemic) [I-210]: at most 100 nM; `COC(=O)c1ccc(C2CC(Br)=NO2)cc1` (racemic) [I-74]: at most 100 nM.
Next, `N[S@SP3](=O)(=O)c1cccc(OC2=NOC(c3ccc(Oc4ccccc4)cc3)C2)c1` (racemic) [I-64]: at least 1000 nM.
Regarding `CN(C)S(=O)(=O)c1ccc(OC2=NOC(C)(c3ccc(OC(F)(F)F)cc3)C2)cc1` (racemic) [I-235], the Ki is at least 1000 nM.
The value for `CCCCOc1ccc([C@H]2CC(Oc3cncnc3)=NO2)cc1` (racemic) [I-139] was at most 100 nM; that for `CC1(c2ccc(OC(F)(F)F)cc2)CC(Oc2ccc(C(=O)NCC(F)(F)F)nc2)=NO1` (racemic) [I-116] was 100 to 1000 nM.
For the molecule `FC(F)(F)c1cccc(OC2=NOC(c3ccc(Oc4ccccc4)cc3)C2)c1` (single isomer, unassigned) [I-26], the inhibition constant Ki was at least 1000 nM.
Next, `CC1(c2ccc(OC(F)(F)F)cc2)CC(Oc2cccc(-c3nnco3)c2)=NO1` (racemic) [I-232]: at most 100 nM; `BrC1=NOC(c2ccccc2)C1` (single isomer, unassigned) [I-1]: 100 to 1000 nM.
